One compound from US20040259806A1 (priority 2001, published 2004) can be followed below.

One assay concerns peritoneal macrophages. The assay can be described thus: Phagocytosis and killing of Saccharomyces cerevisiae by peritoneal macrophages of treated infected mice. The format is in vivo. How it is done:
In order to study phagocytosis, peritoneal macrophages were plated at a concentration of 10^6 cells per Petri dish and media including 10^7 Saccharomyces cerevisiae cells, opsonized by mice serum was added. Results were evaluated using the Mann-Whitney test. Phagocytic activity was calculated after determination of percentage of macrophages involved in phagocytes. The phagocytic index was determined by calculating the average number of yeast phagocytosed per one cell. Killing activity was resolved by the number of yeast digested by macrophages after 1.5 h of incubation. Finally, the killing index was determined as follows: [formula]

The subject of a further assay is IL-2. The assay can be described thus: IL-2 production by Con A stimulated spleen cells (CTLL-2 assay). In kind it is in vivo, mice. Conditions: 4 days after therapy; Group 7 (0.1 ìg/kg ip) compared to Group 3 (isoniazid control); Con A stimulated spleen cells. The method, then:
In RPMI-1640, spleen cells were diluted to a concentration of 10^7/ml with 10% fetal calf serum, 2 mM L-glutamine and 80 ìg/ml gentamycin. A 100 ìl cell suspension was added to each well of a 96-well culture plate and cytokine production was induced by Con A at a final concentration of 2.5 ìg/ml. A control well included RPMI-1640. For 24 hours, cells were incubated at 37° C. and humidified in 5% CO2. Following incubation, […] of supernatant was removed from each well and stored at −70° C.
In order to determine the IL-2 concentration in cell culture supernatants, the CTLL-2 IL-2 dependent cell line was used. CTLL-IL-2 cells were washed twice in RPMI-1640 and counted with a Goriaev hemocytometer. Supernatants were diluted in 96-well culture plates at dilutions of 1:5, 1:15, 1:45 and 1:135 in a volume of 100 il. IL-2 standard dilutions were also prepared. Cells were diluted to 2×10^5/ml in RPMI-1640 with 10% inactivated fetal calf serum, 2 mM L-glutamine, 80 ìg/ml gentamycin. The 100 ìl suspension was added to each well of the culture plate and incubated for 48 h at 37° C. in 5% CO2 humidity. Ten ìl of 5 i Ci/ml ^3H-thymidine was added to each well 16 h before the end of incubation. Following incubation, the cells were harvested on filters through the use of a semi-automated harvester and samples were counted in a liquid scintillation counter.

Another assay relates to spleen cells. The assay can be described thus: Spleen cell proliferation (Con A, LPS, tuberculin) from treated infected mice. In kind it is in vivo. The note with it: after 24 days; Group 3 the isoniazid control group. The method, then: Spleens from mice were harvested aseptically, homogenized in RPMI-1640 medium (Biolot, Russia) and filtered through two layers of sterile gauze. Erythrocytes were lysed in 0.83% percent ammonium chloride solution after centrifugation of the homogenate. Spleen cells were washed twice with RPMI-1640 with 2 mM L-glutamine and […] gentamycin (Sigma, St. Louis, Mo.), then counted using a Goriaev hemocytometer.
Spleen cells and thymic cells were isolated as described above. In vitro, thymic cells were diluted to 10^7/ml in RPMI-1640 with 2 mM L-glutamine, 80 ìg/ml gentamycin and 4% heat-inactivated fetal calf serum (Sigma, St. Louis, Mo.). Spleen cells were diluted to 3×10^6/ml in RPMI-1640 with 2 mM L-glutamine, 80 ìg/ml gentamycin and 20% inactivated fetal calf serum. 0.5 ìg/ml Concanavalin A (Con A, Sigma, St. Louis, Mo.) was used to stimulate thymic cell proliferation. For spleen cell proliferation, 0.5 ìg/ml Con A, 10 ìg/ml lipopolysaccharide (Sigma, St. Louis, Mo.), and 50 ìg/ml tuberculin purified protein derivative (PPD) were utilized. The assay was carried out in 96-well plates and cell cultures were incubated for 72 hours, or 96 hours if tuberculin was used, at 37° C. in humidified 5% CO2, then pulsed with 5 ìl Ci/ml ^3H-thymidine overnight (approximately 16 h) and harvested on filters using a semi-automated harvester (Titertek™, Flow Laboratories, Norway). Filters were dried and proliferation calculated by ^3H-thymidine incorporation by counting samples in a liquid scintillation counter (LKB 1217 Racketa, Wallace, Sweden). Data was expressed in impulses per minute.

For a further assay, the system named is M. bovis 8. In kind it is in vivo, mice.
The mark [1] stands for this setting: 24 days after end of therapy, Group 7 (0.1 ìg/kg ip) versus Group 3 (isoniazid control).

As for `NNC(=O)c1ccncc1` [isoniazid, isonicotinic acid hydrazide, reference compound], the phagocytic killing with peritoneal macrophages (24 days after treatment, Group 3 (isoniazid), 178.0 in uninfected mice, p=0.05) is recorded as 62.0 U. Further, the Phagocytosis entry in the assay on peritoneal macrophages (24 days after treatment, isoniazid treatment group) is recorded as “returned to the level seen in uninfected mice”. Besides, the phagocytic activity in the assay with peritoneal macrophages (after 4 days, Group 7 (SCV-07 0.1 ìg/kg ip) compared to Group 3 (isoniazid control), p≦0.05, 64.2% in uninfected mice) is reported as 19.4%. In addition, the killing in the assay with peritoneal macrophages (after 4 days, SCV-07 versus control, p≦0.05) is listed as 196.4. This compound gave a phagocytic activity with peritoneal macrophages (after 17 days, Group 6 (1.0 ìg/kg ip, 10 injections) versus Group 3 (isoniazid control)) of 49.8%. The compound further gave a phagocytic index in the assay with peritoneal macrophages (after 17 days, Group 6 (1.0 ìg/kg ip, 10 injections) versus Group 3, p=0.05) of 4.91 U. The same compound came in with an IL-2 production in the assay on IL-2 of 16.6±2.6 U/ml. Further, in the assay on spleen cells, the “spleen cell proliferative response (Con A and LPS)” value is “remained low”. Moreover, in the assay with M. bovis 8 (setting [1]), the “growth of M bovis cultured from spleens” value worked out at 275±14.1 CFU, the lung weight index is on record as 1.07±0.23 and the spleen weight index turned out to be 1.94±0.31. Moreover, the “increase in body weight” value in the assay with M. bovis 8 (24 days after end of therapy, Group 7 (SCV-07 0.1 ìg/kg ip, 5 injections, with isoniazid) versus Group 3 (isoniazid control)) amounted to 20.7%. The “lung damage index, difference to untreated mice (Group 2)” value in the assay on M. bovis 8 (isoniazid alone (Group 3), 10 mg/kg subcutaneous, Day 28 of infection) was “no significant difference”.
